What all share (assay type): physicochemical
Data set [1] is described as follows: Color tone of colored solution, visually observed. To be noted: 0.001%-by-mass n-decane solution. The source says: (§1) Azamethine colorants (the above-mentioned Exemplary Compounds 16, 17, 1, and 3 shown in Table 1 below) and n-decane that was an organic solvent were mixed, respectively, thereby preparing 4 kinds of 0.001%-by-mass n-decane solutions (colored compositions) colored with the azamethine colorants, respectively.
(§2) Separately, azo colorants (Comparative Compounds 1 to 3 mentioned below) and n-decane that was an organic solvent were mixed, respectively, thereby preparing 3 kinds of 0.001%-by-mass n-decane solutions (comparative colored compositions) colored with the azo colorants, respectively, as comparative colored compositions.
Each of the colored solutions (colored compositions) was visually observed and evaluated regarding the color tone thereof.

Data set [2] is described as follows: Maximum absorption wavelength, absorbance and absorption coefficient (visible light spectrophotometer). Conditions: for Absorbance (abs) / Maximum absorption wavelength (λmax): 0.001%-by-mass n-decane solution; for Molar absorption coefficient (ε): at maximum absorption wavelength, calculated by Lambert-Beer law, n-decane solution; for molar extinction coefficients (ε) (in words): summary of Table 1.
Text: as §1, §2
The maximum absorption wavelength (λmax) and the absorbance of the colored solutions (colored compositions) were measured using a visible light spectrophotometer (UV-1800 PC, trade name, manufactured by Shimadzu Corporation). Further, the molar extinction coefficient (∈) at a maximum absorption wavelength (λmax) of the colorants included in the colored solutions (the colored compositions) was calculated, based on a Lambert-Beer law.

A short description of a further data set: Solubility in hexane. Conditions: for Solubility in hexane [%]: n-hexane, 25° C. and 0.1 MPa, % by mass; for solubility in hexane (in words): summary of Table 1. On the procedure:
The solubility of each of the colorants in n-hexane as a non-polar solvent was measured as described below.
The respective colorants were each dissolved in n-hexane that had been heated to 50° C. to prepare a saturated solution, and then, the obtained saturated solution was left to stand for 1 hour under an environment of 25° C. and 0.1 MPa. The precipitated colorant was filtered, and the precipitation amount was measured to calculate the solubility (% by mass) of each of the colorants in n-hexane at 25° C. and 0.1 MPa.

A short description of data set [3]: Relative dielectric constant of colorant. To be noted: for Relative dielectric constant (1 kHz): extrapolated to colorant concentration 100% from diluted n-decane solutions, 1.0 V, 20° C., 40% RH; for relative dielectric constants (in words): summary of Table 1. Here is the method: Herein, the relative dielectric constant of the colorant denotes a relative dielectric constant (calculated value) at a colorant concentration of 100%, as determined by extrapolating a straight line (calibration curve) indicating the relationship between the colorant concentration and the relative dielectric constant in a diluted colorant solution.
An equivalent parallel capacitance when a measurement frequency 1 kHz and a measurement voltage of 1.0 V are applied is measured in the state in which a diluted colorant solution is sandwiched between two electrodes facing each other with an electrode interval of 10 μm, and the relative dielectric constant of the diluted colorant solution is calculated by the following equation, based on the equivalent parallel capacitance thus obtained. Relative dielectric constant of diluted colorant solution=Equivalent parallel capacitance×Electrode interval/Electrode area/Dielectric constant of vacuum (∈0)
The relative dielectric constant of each of the colorants is determined by the following method.
That is, the relative dielectric constants of plural diluted colorant solutions at various concentrations, which had been prepared as described in (4-1) below, were measured, respectively, in the manner as described in (4-2) below. From the results obtained, a straight line (calibration curve) showing the relationship between the colorant concentrations and the relative dielectric constants were created. The relative dielectric constant (calculated value) at a colorant concentration of 100% was determined by extrapolating the straight line (calibration curve), and the obtained value was taken as the relative dielectric constant of the colorant.
The respective colorants and n-decane as an organic solvent are mixed, to thereby prepare n-decane solutions (diluted colorant solutions) at various concentrations, respectively.
A diluted colorant solution was sandwiched between ITO electrode-containing glass substrates that are flat plates in parallel facing each other at an electrode interval of 10 μm, and then an equivalent parallel capacitance was measured at the time of voltage application for measurement of 1.0 V at a frequency for measurement of 1 kHz under the conditions of 20° C. and 40% RH using a Model 2353LCR meter (trade name, manufactured by NF Corporation). Based on the equivalent parallel capacitance, the relative dielectric constant of the diluted colorant solution was determined in accordance with the following equation.
Relative dielectric constant of diluted colorant solution=Equivalent parallel capacitance×Interval of electrodes/Area of electrode/Dielectric constant of vacuum (∈0)

As for `CCCCC(CC)c1nnc2n1N=C(C(C)(C)C)/C2=N/c1c(C(C)(C)C)nn2c(C(CC)CCCC)n[nH]c12` (stereo not drawn) [Exemplary Compound 1], in data set [1], the Color of solution entry is reported as “Orange”. In addition, in data set [2], the “Absorbance (abs)” value is on record as 0.533 abs, the “Maximum absorption wavelength (λmax)” value is reported as 492 nm, the Molar absorption coefficient (ε) was 28600 L/mol/cm and the “molar extinction coefficients (ε) (in words)” value is “high”. Also, in the data set “Solubility in hexane”, the “Solubility in hexane [%]” value was 10% and the “solubility in hexane (in words)” value is “high solubility”. Moreover, in data set [3], the “Relative dielectric constant (1 kHz)” value is listed as 3.3 and the “relative dielectric constants (in words)” value was “low”.
Turning to `CCCCC(CC)c1n[nH]c2c(/N=C3/C(C#N)=C(C(=O)OC4C(C(C)(C)C)CC(C)CC4C(C)(C)C)c4nc(C(C)(C)C)nn43)c(C(C)(C)C)nn12` (stereo not drawn) [Exemplary Compound 3], the Color of solution entry in data set [1] is “Red”. Also, in data set [2], the “Absorbance (abs)” value is reported as 0.797 abs, the “Maximum absorption wavelength (λmax)” value was found to be 545 nm, the Molar absorption coefficient (ε) was 56900 L/mol/cm and the “molar extinction coefficients (ε) (in words)” value is listed as “high”. In the data set “Solubility in hexane”, the “Solubility in hexane [%]” value is ≥ 40 or % and the “solubility in hexane (in words)” value is listed as “high solubility”. Also, in data set [3], the “Relative dielectric constant (1 kHz)” value was 5.1 and the “relative dielectric constants (in words)” value is given as “low”.

Values taken from US9256062B2, “Electrowetting display apparatus and dye composition for electrowetting display” (FUJIFILM CORPORATION, priority 2012, dated 2016).
